# Article PMC11284787, “Ligand-Directed Labeling of the Adenosine A1 Receptor in Living Cells” (Journal of Medicinal Chemistry, 2024)
# Test system: T1, TS-SNAP-A1AR
# T1 construct: signal peptide of the murine 5HT3A receptor (N); expressed in transfected cells; receptor purified on MagStrep beads after labelling in cells
# Assay: SDS-PAGE in-gel fluorescence of labeled TS-SNAP-A1AR
# Assay type: cell-based
# Settings: HEK293G TS-SNAP-A1AR cells, 300 nM 11 or 130 nM 12 (then 1 μM Met-Tet-SulfoCy5), 2 h; band at ca. 59.1 kDa
# Method: Figure 3 Molecular pharmacology and biochemical characterization of 11 and 12. NanoBRET ligand-binding data were measured in HEK293 cells stably expressing the human NL-A1AR (A–C) or rat NL-A1AR (D–F). […] Data were normalized to maximal BRET signals in the absence of unlabeled competing ligands (total binding, TB). (C, F) NanoBRET dissociation kinetics experiments with 11 (SulfoCy5) performed in human and rat NL-A1AR HEK293T cells, respectively. Cells were treated with 250 nM 11 (SulfoCy5, lilac open circles) for 5 h and CA200645 (black open triangles) for 2 h. […] TS-SNAP-A1AR was purified and separated on an SDS-PAGEgel gel, and direct Cy5 fluorescence was visualized using in-gel fluorescence. […]
# The small reduction in the BRET signal observed toward the end of the reads could be mostly likely ascribed to substrate (furimazine) consumption. […] To confirm covalent labeling of A1AR by 11 and 12, HEK293G cells stably expressing a Twin-Strep-SNAP-A1AR(TS-SNAP-A1R) construct were treated with 11 or 12 prior to purification, separation by sodium dodecyl sulfate-polyacrylamide gel electrophoresis (SDS-PAGE) and visualization of labeled samples by in-gel fluorescence (Figure 3G). […]
# Autocorrelation curves (AC) were constructed from fluorescence fluctuation traces and analysed within Zen Black (2012) software. […]
row,Compound,in-gel Cy5 fluorescence band of SulfoCy5-labeled TS-SNAP-A1AR
1,"CCCCn1c(=O)c2[nH]c(C34CCC(C(=O)NCCNC(=O)CCNC(=O)c5ccc(OC(=O)CCC(=O)NCCOCCOCCNC(=O)O[C@H]6CC/C=C/CCC6)c(F)c5)(CC3)CC4)nc2n(CCCC)c1=O [Compound 12, 4-((3-((2-(4-(1,3-Dibutyl-2,6-dioxo-2,3,6,7-tetrahydro-1H-purin-8-yl)bicyclo[2.2.2]octane-1-carboxamido)ethyl)amino)-3-oxopropyl)carbamoyl)-2-fluorophenyl (R,E)-1-(Cyclooct-4-en-1-yloxy)-1,12-dioxo-5,8-dioxa-2,11-diazapentadecan-15-oate]",strong band
2,"CCCCn1c(=O)c2[nH]c(C34CCC(C(=O)NCCNC(=O)CCNC(=O)c5ccc(OC(=O)CCCCC[N+]6=C(/C=C/C=C/C=C7/N(C)c8ccc(S(=O)(=O)O)cc8C7(C)C)C(C)(C)c7cc(S(=O)(=O)[O-])ccc76)c(F)c5)(CC3)CC4)nc2n(CCCC)c1=O [Compound 11, 1-(6-(4-((3-((2-(4-(1,3-Dibutyl-2,6-dioxo-2,3,6,7-tetrahydro-1H-purin-8-yl)bicyclo[2.2.2]octane-1-carboxamido)ethyl)amino)-3-oxopropyl)carbamoyl)-2-fluorophenoxy)-6-oxohexyl)-3,3-dimethyl-2-((1E,3E)-5-((E)-1,3,3-trimethyl-5-sulfoindolin-2-ylidene)penta-1,3-dien-1-yl)-3H-indol-1-ium-5-sulfonate]",strong band
